One assay concerns the target T1, c-Src (Homo sapiens, UniProt P12931).
T1 construct: made in house; host or cells: baculovirus infected insect cells
The assay can be described thus: c-Src kinase assay, 32P incorporation into polyglutamate-tyrosine. It counts as biochemical. The note with it: 5 μM ATP. Here is the method: (§1) Other Kinases. c-Src kinase is purified from baculovirus infected insect cell lysates using an antipeptide monoclonal antibody directed against the N-terminal 2-17 amino acids as described previously by Fry, et al., Anticancer Drug Design, 1994;9:331-351. Protein kinase C (PKC.) is obtained as a rat brain preparation from Promega.
c-Src. The antibody, covalently linked to 0.65-μm latex beads, is added to a suspension of insect cell lysis buffer comprised of 150 mM NaCl, 50 mM Tris pH 7.5, 1 mM DTT, 1% NP-40, 2 mM EGTA, 1 mM sodium vanadate, 1 mM PMSF, 1 μg/mL each of leupeptin, pepstatin, and aprotinin. Insect cell lysate containing the c-Src protein is incubated with these beads for 3 to 4 hours at 4° C. with rotation. At the end of the lysate incubation, the beads are rinsed three times in lysis buffer, resuspended in lysis buffer containing 10% glycerol, and frozen. These latex beads are thawed, rinsed three times in assay buffer which is comprised of 40 mM tris pH 7.5, 5 mM magnesium chloride, and suspended in the same buffer. In a Millipore 96-well plate with a 0.65 μm polyvinylidine membrane bottom are added the reaction components: 10-μL c-Src beads, 10 μL of 2.5 mg/mL polyglutamate-tyrosine substrate, 5 μM ATP containing 0.2 μCi labeled ^32 P-ATP, 5 μL DMSO containing inhibitors or as a solvent control, and buffer to make the final volume 125 μL. The reaction is started at room temperature by addition of the ATP and quenched 10 minutes later by the addition of 125 μL of 30% TCA, 0.1 M sodium pyrophosphate for 15 minutes on ice. The plate is then filtered and the wells washed with two 250-μL aliquots of 15% TCA, 0.1 M pyrophosphate. The filters are punched, counted in a liquid scintillation counter, and the data examined for inhibitory activity in comparison to a known inhibitor such as erbstatin. The method is described more fully in J. Med. Chem., 1994;37:598-609.

Assay [1] deals with T2, FGFr (human FGF-1 (flg) receptor tyrosine kinase) (Homo sapiens, UniProt P11362).
T2 construct: PCR primers are designed to amplify a fragment of DNA that codes for the intracellular tyrosine kinase domain; made in house; host or cells: Sf9 insect cells (baculovirus), cell lysate
Nature of the assay: FGFr tyrosine kinase assay, 32P incorporation into glutamate-tyrosine copolymer. It counts as biochemical. The following applies: 50 μM ATP; read-out: FGFr IC50. How it is done: (§2) Platelet Derived Growth Factor Receptor (PDGFr) and Fibroblast Growth Factor Receptor (FGFr). Full length cDNAs for the mouse PDGF-β and human FGF-1 (flg) receptor tyrosine kinases were obtained from J. Escobedo and are prepared as described in J. Biol. Chem., 1991;262:1482-1487. PCR primers are designed to amplify a fragment of DNA that codes for the intracellular tyrosine kinase domain. The fragment is melded into a baculovirus vector, cotransfected with AcMNPV DNA, and the recombinant virus isolated. SF9 insect cells are infected with the virus to overexpress the protein, and the cell lysate is used for the assay.
(§3) PDGFr and FGFr. […] Briefly, to each well is added 82.5 μL of incubation buffer containing 25 mM Hepes (pH 7.0), 150 mM NaCl, 0.1% Triton X-100, 0.2 mM PMSF, 0.2 mM sodium vanadate, 10 mM manganese chloride, and 750 μg/mL of poly (4:1) glutamate-tyrosine followed by 2.5 μL of inhibitor and 5 μL of enzyme lysate (7.5 μg/μL FGFR-TK or 6.0 μg/μL PDGFR-TK) to initiate the reaction. Following a 10 minute incubation at 25° C., 10 μL of [γ^32 P]ATP (0.4 μCi plus 50 μM ATP) is added to each well, and samples are incubated for an additional 10 minutes at 25° C. The reaction is terminated by the addition of 100 μL of 30% trichloroacetic acid (TCA) containing 20 mM sodium pyrophosphate and precipitation of material onto glass fiber filter mats (Wallac). […] Nonspecific activity is defined as radioactivity retained on the filters following incubation of samples with buffer alone; (no enzyme). Specific enzymatic activity is defined as total activity (enzyme plus buffer) minus nonspecific activity.

The target of another assay is cdk2/cyclinE (Homo sapiens, UniProt P24941). The assay can be described thus: Cyclin-Dependent Kinase Assay, cdk2/cyclinE. It is filed as biochemical. The following applies: retinoblastoma substrate. How it is done:
(§4) Cyclin-Dependent Kinase Assays (cdk2/cyclinE, cdk2/cyclinA, cdkl/cyclinB)
(§5) All components except the ATP were added to the wells, and the plate was placed on a plate mixer for 2 minutes. The reaction was begun by addition of [^32 P]ATP, and the plate was incubated at 25° C. for 15 minutes. The reaction was terminated by addition of 0.1 mL of 20% TCA. The plate was kept at 4° C. for least 1 hour to allow the substrate to precipitate. The wells were then washed 5 times with 0.2 mL of 10% TCA and ^32 P incorporation determined with a beta plate counter (Wallace Inc., Gaithersburg, Md.).

In the next assay the target is cdk4/cyclinD (Homo sapiens, UniProt P11802). Nature of the assay: Cyclin-Dependent Kinase 4 (cdk4/cyclinD) Assay. It is filed as biochemical. The following applies: 25 μM ATP, retinoblastoma substrate. How it is done:
Cyclin-Dependent Kinase 4 (cdk4/cyclinD) Assay
Enzyme assays for IC50 determinations and kinetic evaluation were performed in 96-well filter plates (Millipore MADVN6550). The total volume was 0.1 mL containing a final concentration of 20 mM TRIS (tris[hydroxymethyl]aminomethane), at pH 7.4, 50 mM NaCl, 1 mM dithiothreitol, 10 mM MgCl2, 25 μM ATP containing 0.25 μCi of [^32 P]ATP, 20 ng of cdk4/cyclinD, 1 μg of retinoblastoma, and appropriate dilutions of a compound of the present invention. All components except the ATP were added to the wells, and the plate was placed on a plate mixer for 2 minutes. The reaction was started by adding [^32 P]ATP and the plate was incubated at 25° C. for 15 minutes. The reaction was terminated by addition of 0.1 mL of 20% trichloroacetic acid (TCA). The plate was kept at 4° C. for at least 1 hour to allow the substrate to precipitate. The wells were then washed 5 times with 0.2 mL of 10% TCA and ^32 P incorporation was determined with a beta plate counter (Wallace Inc., Gaithersburg, Md.).

The target in assay [2] is T3, PDGFr (mouse PDGF-β receptor tyrosine kinase) (Mus musculus, UniProt P05622).
T3 construct: PCR primers are designed to amplify a fragment of DNA that codes for the intracellular tyrosine kinase domain; made in house; host or cells: Sf9 insect cells (baculovirus), cell lysate
Nature of the assay: PDGFr tyrosine kinase assay, 32P incorporation into glutamate-tyrosine copolymer. The following applies: 50 μM ATP. It is filed as biochemical. How it is done: as §2, §3

Another assay has as its target T4, insulin receptor (INSr) (Homo sapiens, UniProt P06213).
T4 construct: An assay using the intracellular kinase domains of insulin receptor (INSr)
The assay can be described thus: Insulin receptor (INSr) kinase assay. The note with it: 10 mM manganese chloride. It counts as biochemical. Here is the method: (§6) EGFr. Enzyme assays for IC50 determinations are performed in 96-well filter plates (Millipore MADVN6550). The total volume is 0.1 mL containing 20 mM Hepes, pH 7.4, 50 μM sodium vanadate, 40 mM magnesium chloride, 10 μM ATP containing 0.5 μCi of [^32 P]ATP, 20 μg of polyglutamic acid/tyrosine (Sigma Chemical Co., St. Louis, Mo.), 10 ng of EGF receptor tyrosine kinase and appropriate dilutions of inhibitor. All components except the ATP are added to the well, and the plate is incubated with shaking for 10 minutes at 25° C. The reaction is started by adding [^32 P]ATP, and the plate is incubated at 25° C. for 10 minutes. The reaction is terminated by addition of 0.1 mL of 20% trichloroacetic acid (TCA). The plate is kept at 4° C. for at least 15 minutes to allow the substrate to precipitate. The wells are then washed five times with 0.2 mL of 10% TCA, and ^32 P incorporation is determined with a Wallac beta plate counter.
(§7) Other Kinases. An assay using the intracellular kinase domains of insulin receptor (INSr) is performed as described for the EGF receptor except that 10 mM manganese chloride is included in the reaction. The PKC assay is performed as previously described by Martiny-Baron, et al., J. Biol. Chem., 1993;268:9194-9197.

In the next assay the target is Protein kinase C (PKC). The assay can be described thus: Protein kinase C (PKC) assay. The following applies: rat brain preparation. It is filed as biochemical. Here is the method:
as §1, §7

The target of assay [3] is T5, EGFr (Human EGF receptor tyrosine kinase) (Homo sapiens, UniProt P00533).
T5 construct: Human EGF receptor tyrosine kinase is isolated from A431 human epidermoid carcinoma cells; endogenous in cells; host or cells: A431 human epidermoid carcinoma cells (detergent lysate, Q Sepharose fractions)
The assay can be described thus: EGFr tyrosine kinase assay. The note with it: 10 μM ATP. It is filed as biochemical. Here is the method: Epidermal Growth Factor Receptor (EGFr). Human EGF receptor tyrosine kinase is isolated from A431 human epidermoid carcinoma cells by the following method. Cells were grown in roller bottles in 50% Dulbecco's Modified Eagle medium and 50% HAM F-12 nutrient media (Gibco) containing 10% fetal calf serum. Approximately 10^9 cells are lysed in two volumes of buffer containing 20 mM 2-(4N-[2-[…]]piperazin-1-yl)ethanesulfonic acid (Hepes), pH 7.4, 5 mM ethylene glycol bis(2-aminoethyl ether) N,N,N',N'-tetraacetic acid (EGTA), 1% Triton X-100, 10% glycerol, 0.1 mM sodium orthovanadate, 5 mM sodium fluoride, 4 mM pyrophosphate, 4 mM benzamide, 1 mM dithiothreitol (DTT), 80 μg/mL aprotinin, 40 μg/mL leupeptin, and 1 mM phenylmethylsulfonyl fluoride (PMSF). After centrifugation at 25,000×g for 10 minutes, the supernatant is applied to a fast Q sepharose column (Pharmacia) and eluted with a linear gradient from 0.1 M NaCl to 0.4 M NaCl in 50 mM Hepes, 10% glycerol, pH 7.4. Enzyme active fractions are pooled, divided into aliquots, and stored at -100° C.
as §6

Another assay deals with cdk2/cyclinA (Homo sapiens, UniProt P24941). Nature of the assay: Cyclin-Dependent Kinase Assay, cdk2/cyclinA. The following applies: 12 mM ATP, retinoblastoma substrate. It counts as biochemical. Here is the method:
as §4, §5

The target in a further assay is cdk1/cyclinB (Homo sapiens, UniProt P06493). The assay can be described thus: Cyclin-Dependent Kinase Assay, cdk1/cyclinB. It is filed as biochemical. The following applies: 12 mM ATP, retinoblastoma substrate. Here is the method:
as §4, §5

Another assay has as its system cdk4. The following applies: cited from earlier work.
Assay [4] concerns breast and lung cancer cells. The note with it: several types of breast and lung cancer cells; cited from earlier work.
The subject of a further assay is cdk2. The note with it: cited from earlier work.

Chain of cdk1/cyclinB (P06493 whole entry, species assumed): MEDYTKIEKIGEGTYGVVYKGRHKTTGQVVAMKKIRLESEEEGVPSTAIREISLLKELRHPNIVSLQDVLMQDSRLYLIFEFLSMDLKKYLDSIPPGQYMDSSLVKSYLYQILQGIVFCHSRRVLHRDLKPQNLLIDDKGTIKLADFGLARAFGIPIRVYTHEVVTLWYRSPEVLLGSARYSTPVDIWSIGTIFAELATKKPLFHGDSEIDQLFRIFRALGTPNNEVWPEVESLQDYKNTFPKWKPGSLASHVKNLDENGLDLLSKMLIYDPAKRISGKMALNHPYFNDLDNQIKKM
Chain of cdk1/cyclinB (P14635 whole entry partner, species assumed): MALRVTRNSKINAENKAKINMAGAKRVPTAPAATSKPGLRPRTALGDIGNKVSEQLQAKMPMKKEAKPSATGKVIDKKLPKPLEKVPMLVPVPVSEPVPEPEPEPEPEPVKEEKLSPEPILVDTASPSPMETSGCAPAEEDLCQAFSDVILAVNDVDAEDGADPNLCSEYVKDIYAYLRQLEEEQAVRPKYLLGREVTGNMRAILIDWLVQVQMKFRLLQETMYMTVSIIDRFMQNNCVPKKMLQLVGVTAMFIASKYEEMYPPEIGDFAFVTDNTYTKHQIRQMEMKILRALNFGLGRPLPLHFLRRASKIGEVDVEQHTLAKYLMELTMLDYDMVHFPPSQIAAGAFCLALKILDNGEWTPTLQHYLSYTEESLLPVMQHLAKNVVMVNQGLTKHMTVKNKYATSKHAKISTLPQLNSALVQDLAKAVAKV
T1 sequence (P12931 whole entry, species assumed): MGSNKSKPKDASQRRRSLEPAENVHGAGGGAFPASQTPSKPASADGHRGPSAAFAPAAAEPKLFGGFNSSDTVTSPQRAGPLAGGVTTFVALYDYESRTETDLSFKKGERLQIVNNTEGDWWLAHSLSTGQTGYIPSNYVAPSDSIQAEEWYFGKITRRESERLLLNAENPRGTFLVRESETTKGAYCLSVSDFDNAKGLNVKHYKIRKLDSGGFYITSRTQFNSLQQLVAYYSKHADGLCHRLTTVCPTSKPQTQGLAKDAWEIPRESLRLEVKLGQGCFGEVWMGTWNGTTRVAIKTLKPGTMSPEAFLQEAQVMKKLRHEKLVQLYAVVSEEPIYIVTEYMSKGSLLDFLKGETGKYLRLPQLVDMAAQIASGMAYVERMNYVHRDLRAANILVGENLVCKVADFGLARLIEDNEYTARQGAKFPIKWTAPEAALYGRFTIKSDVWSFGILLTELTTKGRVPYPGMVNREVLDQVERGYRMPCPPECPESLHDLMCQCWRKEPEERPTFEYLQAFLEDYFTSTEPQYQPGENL
T2 sequence (P11362 478-767 limits assumed): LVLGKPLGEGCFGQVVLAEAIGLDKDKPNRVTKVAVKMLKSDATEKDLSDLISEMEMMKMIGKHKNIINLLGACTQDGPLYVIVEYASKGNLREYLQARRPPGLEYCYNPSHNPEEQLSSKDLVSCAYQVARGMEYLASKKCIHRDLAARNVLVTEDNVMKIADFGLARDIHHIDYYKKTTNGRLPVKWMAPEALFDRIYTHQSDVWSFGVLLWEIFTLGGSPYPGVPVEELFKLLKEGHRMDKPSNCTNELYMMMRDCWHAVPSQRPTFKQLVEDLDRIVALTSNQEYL
Chain of cdk4/cyclinD (P11802 whole entry, species assumed): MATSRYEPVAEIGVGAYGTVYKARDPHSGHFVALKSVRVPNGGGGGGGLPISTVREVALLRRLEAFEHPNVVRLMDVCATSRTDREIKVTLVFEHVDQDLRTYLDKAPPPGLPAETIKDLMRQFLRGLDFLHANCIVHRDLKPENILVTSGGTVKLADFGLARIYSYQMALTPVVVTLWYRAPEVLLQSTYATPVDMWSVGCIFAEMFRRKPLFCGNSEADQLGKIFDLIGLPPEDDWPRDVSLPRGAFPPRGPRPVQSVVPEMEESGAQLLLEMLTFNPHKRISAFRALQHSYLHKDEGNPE
Chain of cdk4/cyclinD (P24385 whole entry partner, species assumed): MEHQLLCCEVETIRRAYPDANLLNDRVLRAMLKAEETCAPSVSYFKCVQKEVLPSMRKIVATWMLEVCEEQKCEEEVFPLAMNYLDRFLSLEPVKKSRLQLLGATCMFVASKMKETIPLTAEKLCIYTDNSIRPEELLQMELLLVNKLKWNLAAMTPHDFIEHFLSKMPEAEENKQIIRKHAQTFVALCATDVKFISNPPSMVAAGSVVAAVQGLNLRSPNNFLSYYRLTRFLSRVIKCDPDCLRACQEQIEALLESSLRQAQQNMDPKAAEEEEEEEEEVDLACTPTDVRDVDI
T3 sequence (P05622 599-961 limits assumed): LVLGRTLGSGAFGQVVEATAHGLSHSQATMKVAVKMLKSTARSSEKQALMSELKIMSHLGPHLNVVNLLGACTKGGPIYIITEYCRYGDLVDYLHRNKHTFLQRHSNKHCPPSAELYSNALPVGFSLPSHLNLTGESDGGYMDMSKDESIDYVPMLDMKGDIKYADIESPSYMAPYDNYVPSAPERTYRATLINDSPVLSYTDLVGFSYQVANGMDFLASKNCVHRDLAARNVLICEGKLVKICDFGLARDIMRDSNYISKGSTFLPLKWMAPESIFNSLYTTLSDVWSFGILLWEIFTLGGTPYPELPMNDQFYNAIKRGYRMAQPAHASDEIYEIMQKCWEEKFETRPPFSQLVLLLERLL
T4 sequence (P06213 1023-1298 limits assumed, species assumed): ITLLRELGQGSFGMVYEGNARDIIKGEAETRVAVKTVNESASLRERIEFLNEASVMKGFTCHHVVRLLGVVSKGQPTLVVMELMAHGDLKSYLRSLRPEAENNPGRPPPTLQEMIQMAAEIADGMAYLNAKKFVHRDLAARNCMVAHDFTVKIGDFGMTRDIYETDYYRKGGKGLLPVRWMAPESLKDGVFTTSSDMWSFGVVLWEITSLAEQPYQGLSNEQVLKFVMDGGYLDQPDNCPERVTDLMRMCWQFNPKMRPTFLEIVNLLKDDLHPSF
T5 sequence (P00533 25-1210): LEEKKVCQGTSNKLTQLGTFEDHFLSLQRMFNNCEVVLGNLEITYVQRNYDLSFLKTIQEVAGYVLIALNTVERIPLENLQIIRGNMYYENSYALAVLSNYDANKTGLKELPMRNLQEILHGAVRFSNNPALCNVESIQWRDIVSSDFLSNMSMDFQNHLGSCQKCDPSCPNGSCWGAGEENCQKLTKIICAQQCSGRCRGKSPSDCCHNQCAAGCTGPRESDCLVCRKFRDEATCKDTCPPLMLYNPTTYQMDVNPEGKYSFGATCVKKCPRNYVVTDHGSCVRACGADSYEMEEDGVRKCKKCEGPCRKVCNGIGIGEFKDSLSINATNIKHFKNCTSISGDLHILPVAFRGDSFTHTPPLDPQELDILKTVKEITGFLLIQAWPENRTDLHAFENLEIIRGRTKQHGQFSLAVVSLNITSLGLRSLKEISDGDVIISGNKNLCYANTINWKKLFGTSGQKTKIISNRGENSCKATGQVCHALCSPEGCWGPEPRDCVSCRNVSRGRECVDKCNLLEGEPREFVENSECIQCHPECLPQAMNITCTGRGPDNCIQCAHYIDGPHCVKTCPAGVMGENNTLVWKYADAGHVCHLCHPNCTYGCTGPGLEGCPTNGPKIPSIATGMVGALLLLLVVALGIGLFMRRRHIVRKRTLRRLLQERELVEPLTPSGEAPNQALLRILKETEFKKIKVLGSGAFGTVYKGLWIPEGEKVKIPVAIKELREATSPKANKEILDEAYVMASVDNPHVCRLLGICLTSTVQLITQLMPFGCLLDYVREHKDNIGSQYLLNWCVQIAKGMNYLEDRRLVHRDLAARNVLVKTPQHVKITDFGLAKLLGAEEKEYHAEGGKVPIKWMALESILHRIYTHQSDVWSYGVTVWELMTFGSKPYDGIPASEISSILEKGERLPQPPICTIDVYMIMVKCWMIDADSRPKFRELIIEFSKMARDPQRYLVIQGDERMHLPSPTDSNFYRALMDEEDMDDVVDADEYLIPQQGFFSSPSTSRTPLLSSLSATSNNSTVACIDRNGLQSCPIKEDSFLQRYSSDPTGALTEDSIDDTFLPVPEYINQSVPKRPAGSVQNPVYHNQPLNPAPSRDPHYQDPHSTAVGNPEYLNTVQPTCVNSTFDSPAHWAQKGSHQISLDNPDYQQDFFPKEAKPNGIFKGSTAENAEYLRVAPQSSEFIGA

On to `CCn1c(=O)ccc2cnc(Nc3ccc(N4CCCCC4)cc3)cc21` [Example AA, 1-ethyl-7-(4-(piperidin-1-yl)phenylamino)-1H -[1,6]naphthyridin-2-one], for which the IC50 on c-Src was under 50 µM; in assay [1] it was 12.4 µM; against cdk2/cyclinE it was 5 µM; on cdk4/cyclinD, 1.5 µM; in assay [2], over 50 µM.

For the compound `CN(C)c1cc2c(cn1)cc(-c1c(Cl)cccc1Cl)c(=O)n2C` [Example C, 3-(2,6-dichlorophenyl)-7-dimethylamino-1-methyl-1H -[1,6]naphthyridin-2-one], the IC50 on c-Src and against insulin receptor (INSr) was over 50 µM each time.

Regarding `Cn1c(=O)c(-c2c(Cl)cccc2Cl)cc2cnc(Nc3ccccc3)cc21` [Example M, 3-(2,6-dichlorophenyl)-1-methyl-7-(phenylamino)-1H-[1,6]naphthyridin-2-one], the IC50 at c-Src is 0.79 µM; on Protein kinase C (PKC), over 50 µM; in assay [1], 1.3 µM; in [2], 1 µM; in assay [3], under 50 µM.

For `CCn1c(=O)ccc2cnc(Nc3ccccc3)cc21` [Example W, 1-ethyl-7-phenylamino-1H-[1,6]naphthyridin-2-one], the IC50 on cdk2/cyclinA is 0.88 µM; on c-Src, over 50 µM; in assay [1] it was 17 µM; at cdk2/cyclinE, 1.1 µM; at cdk4/cyclinD, 4.2 µM; in assay [2], over 50 µM. Also, at cdk1/cyclinB, half-maximal inhibition (IC50) was put at 1.9 µM.

Turning to `CCn1c(=O)ccc2cnc(Nc3ccc(OC)cc3)cc21` [Example X, 1-ethyl-7-(4-methoxyphenylamino)-1H-[1,6]naphthyridin-2-one], the IC50 against cdk2/cyclinA is 0.83 µM; against c-Src, over 50 µM; in assay [1], 10.4 µM; against cdk2/cyclinE, 1.3 µM; on cdk4/cyclinD it was 2.6 µM; in [2], 5 to 50 µM. Also, the IC50 against cdk1/cyclinB was determined as 1.5 µM.

Regarding `CCn1c(=O)ccc2cnc(Nc3ccc(N4CCN(C)CC4)cc3)cc21` [Example Y, 1-ethyl-7-[4-(4-methylpiperazin-1-yl)phenylamino]-1H-[1,6]naphthyridin-2-one], the IC50 at cdk2/cyclinA came out at 3.5 µM; against c-Src it was 11.4 µM; in assay [1], 1.4 µM; against cdk2/cyclinE it was 5.8 µM; against cdk4/cyclinD it was 0.35 µM; in [2] it was 5.6 µM. The same compound yielded an IC50 on cdk1/cyclinB of 7.4 µM.

`CCn1c(=O)ccc2cnc(Nc3ccc(N4CCOCC4)cc3)cc21` [Example Z, 1-ethyl-7-(4-(morpholin-4-yl)phenylamino)-1H -[1,6]naphthyridin-2-one]: the IC50 is 1.4 µM against cdk2/cyclinA; 31 µM on c-Src; 5.7 µM in assay [1]; 3 µM on cdk2/cyclinE; 1.35 µM at cdk4/cyclinD; over 50 µM in assay [2]. Moreover, the half-maximal inhibitory concentration (IC50) against cdk1/cyclinB is 4 µM.

On to `CN1CC[C@H](c2c(O)cc(O)c3c(=O)cc(-c4ccccc4Cl)oc23)[C@H](O)C1` [flavopiridol], for which the “inhibition of cdk4” value with cdk4 was “shown to inhibit cdk2 and cdk4”. The “inhibition of breast and lung cancer cells” value in assay [4] is “potent inhibitor of several types of breast and lung cancer cells”. The “inhibition of cdk2” value in the assay with cdk2 is “shown to inhibit cdk2 and cdk4”.

A word on the IC50: it is the concentration at which inhibition is half-maximal.

These data come from patent US6150359A, “Naphthyridinones for inhibiting protein tyrosine kinase and cell cycle kinase mediated cellular proliferation” (Warner-Lambert Company, priority 2000, dated 2000).
